From patent publication US10316017B2, “COT modulators and methods of use thereof” (Gilead Sciences, Inc., priority 2015, dated 2019)
Read-outs that look alike come from different tables or passages of the source.

Experiments:
[1] = target: T1, human Cot catalytic domain (30-397 amino acids) (Homo sapiens, UniProt P41279); test: High Throughput Cot Biochemical Assay (KinEASE TR-FRET); conditions: read-out: IC50 HTRF
T1 construct: Purified recombinant human Cot catalytic domain (30-397 amino acids) was purchased from Cama Biosciences; purchased Cama Biosciences (so in the source)
T1 sequence (P41279 30-397): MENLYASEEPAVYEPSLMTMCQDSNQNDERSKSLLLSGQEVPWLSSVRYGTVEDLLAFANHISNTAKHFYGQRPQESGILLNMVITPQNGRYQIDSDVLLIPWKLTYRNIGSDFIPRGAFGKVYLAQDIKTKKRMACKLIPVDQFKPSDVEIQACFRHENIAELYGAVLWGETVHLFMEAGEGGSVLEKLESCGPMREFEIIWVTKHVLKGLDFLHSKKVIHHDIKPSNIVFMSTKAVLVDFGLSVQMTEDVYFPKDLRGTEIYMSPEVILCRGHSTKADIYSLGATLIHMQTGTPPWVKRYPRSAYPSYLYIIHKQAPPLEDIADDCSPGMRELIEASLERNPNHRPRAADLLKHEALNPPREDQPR
Method in brief: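 Recombinant human Cot catalytic domain (aa 30-397), 5 nM, with 1 μM STK3 peptide and 400 μM ATP in MOPS pH 7.0 buffer with MgOAc, DTT, BSA, NP-40, glycerol, 0.1% DMSO. Phosphorylated XL665-peptide detected by Eu-[…] antibody TR-FRET.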

[2] = tested on: TNFα production in LPS-stimulated human monocytes; test: Cot Monocyte TNFα Cell Based Assay; conditions: Homo sapiens, Monocyte, read-out: EC50 TNF
Method in brief: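 Human monocytes (5,000 cells/well) pretreated with compound for 1 hour at 37° C (0.5% DMSO), then stimulated with 50 pg/ml LPS for 4 hours. Total TNFα measured by TR-FRET after overnight antibody incubation at room temp, expressed as percent of control between unstimulated and stimulated cells.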

[3] = Cot KinEASE TR-FRET (HTRF) biochemical assay, 400 μM ATP
[4] = TNFα in LPS-stimulated human monocytes
[5] = Cot KinEASE TR-FRET, 400 μM ATP
[6] = LPS-stimulated human monocytes, TNFα TR-FRET

| IC50 [1, 3] [nM] | EC50 [2, 4] [nM] | IC50 [1, 5] [nM] | EC50 [2, 6] [nM] | Compound | other results |
| --- | --- | --- | --- | --- | --- |
| 139 | 1360 |  |  | [2H][C@](Nc1cc(C(=O)N(C)C)c2ncc(C#N)c(NCC(C)(C)C)c2c1)(c1ccc(F)cc1)c1cn(C2CC2)nn1 [Example 138, (S)-3-cyano-6-(((1-cyclopropyl-1H-1,2,3-triazol-4-yl) (4-fluorophenyl)methyl-d)amino)-N,N-dimethyl-4-(neopentylamino) quinoline-8-carboxamide] |  |
|  |  | 2 | 27 | Cc1c(C#N)cccc1[C@H](Nc1cc(C#N)c2ncc(C#N)c(NCC(C)(C)C)c2c1)c1cn([C@@H](C)CF)nn1 [Example 1150, 6-(((S)-(3-cyano-2-methylphenyl)(1-((S)-1-fluoropropan-2-yl)-1H-1,2,3-triazol-4-yl)methyl)amino)-4-(neopentylamino)quinoline-3,8-dicarbonitrile] |  |
|  |  | 4 | 119 | CC(C)(C)CNc1c(C#N)cnc2c(C#N)cc(N[C@@H](c3ccc(F)cc3)c3cn(C4(C(N)=O)CCC4)nn3)cc12 [Example 985, (S)-1-(4-(((3,8-dicyano-4-(neopentylamino)quinolin-6-yl)amino)(4-fluorophenyl)methyl)-1H-1,2,3-triazol-1-yl)cyclobutane-1-carboxamide] |  |
|  |  | 2 | 54 | Cc1c([C@H](Nc2cc(Cl)c3ncc(C#N)c(NCC(C)(C)C)c3c2)c2cn(C3(C(F)F)CC3)nn2)cccc1-n1ccnc1 [Example 1069, (S)-6-(((3-(1H-imidazol-1-yl)-2-methylphenyl)(1-(1-(difluoromethyl)cyclopropyl)-1H-1,2,3-triazol-4-yl)methyl)amino)-8-chloro-4-(neopentylamino)quinoline-3-carbonitrile] |  |
|  |  | 2 | 63 | Cc1c(-c2ncco2)cccc1[C@H](Nc1cc(C#N)c2ncc(C#N)c(NCC(C)(C)C)c2c1)c1cn(C2(C(F)F)CC2)nn1 [Example 1056, (S)-6-(((1-(1-(difluoromethyl)cyclopropyl)-1H-1,2,3-triazol-4-yl)(2-methyl-3-(oxazol-2-yl)phenyl)methyl)amino)-4-(neopentylamino)quinoline-3,8-dicarbonitrile] |  |

Continued, compound first:

| Compound | IC50 [1, 3] [nM] | EC50 [2, 4] [nM] | IC50 [1, 5] [nM] | EC50 [2, 6] [nM] | other results |
| --- | --- | --- | --- | --- | --- |
| [2H][C@](Nc1cc(Cl)c2ncc(C#N)c(N[C@H](c3ccccc3)[C@@H]3C[C@H]3C#N)c2c1)(c1ccc(F)cc1)c1cn(C2CC2)nn1 [Example 162, 8-chloro-4-(((S)-((1R,2R)-2-cyanocyclopropyl) (phenyl)methyl)amino)-6-(((S)-(1-cyclopropyl-1H-1,2,3-triazol-4-yl)(4-fluorophenyl)methyl-d)amino)quinoline-3-carbonitrile] | 7890 | > 10000 |  |  |  |
| [2H][C@](Nc1cc(Cl)c2ncc(C#N)c(Nc3cncc(F)c3)c2c1)(c1ccc(F)cc1)c1cn(C(C)C)nn1 [Example 339, (S)-8-chloro-6-(((4-fluorophenyl)(1-isopropyl-1H-1,2,3-triazol-4-yl)methyl-d)amino)-4-((5-fluoropyridin-3-yl)amino)quinoline-3-carbonitrile] | 55 | 1170 |  |  |  |
| CC(C)(C)N1CCC(n2cc([C@@H](Nc3cc(Cl)c4ncc(C#N)c(Nc5ccc(F)c(Cl)c5)c4c3)c3ccccc3CO)nn2)CC1 [Example 722, (S)-6-(((1-(1-(tert-butyl)piperidin-4-yl)-1H-1,2,3-triazol-4-yl)(2-(hydroxymethyl)phenyl)methyl)amino)-8-chloro-4-((3-chloro-4-fluorophenyl)amino)quinoline-3-carbonitrile] |  | 76 |  |  | IC50 ([1]; Cot biochemical HTRF (KinEASE TR-FRET) assay): 4 nM |
| [2H][C@](Nc1cc(Cl)c2ncc(C#N)c(NCC(C)(C)C)c2c1)(c1ccc(Cl)cc1)c1cn(C23CCN(CC2)CC3)nn1 [Example 1010, (S)-8-chloro-6-(((4-chlorophenyl)(1-(quinuclidin-4-yl)-1H-1,2,3-triazol-4-yl)methyl-d)amino)-4-(neopentylamino)quinoline-3-carbonitrile] |  |  | 69 |  | EC50 [2]: 928 nM |
